According to article PMC6425991, “Peptide Super-Agonist Enhances T-Cell Responses to Melanoma” (Frontiers in Immunology, 2019):
Where “and” joins values, the source holds several entries; their conditions need not be identical. Identical values can stand only once.

Assays:
HLA A2 = biological target: T1, HLA A2 (Homo sapiens, UniProt P04439, D140Y/D185E/D98H/E176V/E277Q/G131W/G231S/I119V/I121R/I166T/I218V/L300P/L318F/N151K/N90K/P208A/P217A/Q86G/Q94H/R138H/R169H/T345S); assay type: binding
T1 construct: T2 cells (TAP deficient HLA A2^+) were incubated overnight in serum-free media; endogenous in cells; host or cells: T2 cells

MM909.24 TIL = assay: Intracellular cytokine staining (IFNγ) of TIL infusion product; assay type: cell-based, human; settings: T2 cells as antigen presenting cells, 5 h, peptide 10^−5-10^−12 M
Procedure: Cells were then washed and stained with violet Live/Dead fixable dead cell stain, VIVID (Life Technologies, Paisley, UK) and for surface markers with anti-CD3 peridinin chlorophyll protein (PerCP) (clone BW264/56, Miltenyi Biotech, Bergisch Gladbach, Germany) and anti-CD8 allophycocyanin (APC)-Vio770 (clone BW135/80, Miltenyi Biotech) antibodies. Cells were prepared for ICS by incubating with Cytofix/Cytoperm™ (BD Biosciences), according to manufacturer's instructions, before staining for 20 min on ice with anti-IFNγ APC antibody (clone 45-15, Miltenyi Biotech). Cells were resuspended in FACS buffer (PBS supplemented with 2% FBS) before acquisition on BD FACS Canto II (BD Biosciences). Data was analysed using FlowJo Software (TreeStar, Ashland, OR, USA).

CD8 T-cell clone ST8.24 = assay: Peptide activation assay, MIP-1β ELISA; assay type: cell-based, human; settings: overnight, T2 cells, peptide titration
Procedure: T-cell clones were cultured in R5 for 24 h prior to assay to reduce spontaneous activation. Assays were performed overnight in R5 in 96 U well plates with 3 × 10^5 T-cells and 6 × 10^5 T2 cells with and without desired peptides. The following day, supernatants were harvested, diluted with 70 μL R0 (R10 but without serum) and a half-area-well MIP-1β Enzyme-linked Immunosorbent Assay (ELISA) was carried out as per the manufacturer's instructions (R&D Systems, Minneapolis, MN). A decamer combinatorial peptide library (Pepscan Presto BV, Lelystad, The Netherlands) was stored and used as previously described ([19]). Individual peptides were synthesised to ≥95% purity (GL Biochem, Shanghai, China, or Peptide Protein Research Ltd, Hampshire, UK) stored at −80°C. […] Polyclonal T-cell populations were cultured overnight in R5 in order to reduce spontaneous activation. The following day an IFNγ Enzyme-Linked ImmunoSpot (ELISpot) assay was performed, using Multiscreen plates® (Millipore, Massachusetts, MA) as per the manufacturers' instructions (Mabtech, Nacka Strand, Sweden). 5 × 10^4 T-cells were screened against 10 candidate super-agonist peptides (described previously) at a concentration range of 10^−4 to 10^−8 mM. ELISpot data was collected using an ImmunoSpot® plate reader (CTL, Shaker Heights, Ohio, OH).

[1] = test system: CD8 T-cells of healthy donors; settings: cited from earlier work
Source text: Analysis of T-cells that responded to autologous tumour within the TIL infusion product used to cure an HLA A2^+ stage IV melanoma patient (code MM909.24), and also in the blood 6 months post cure, identified several persistent TCR clonotypes ([16], [17]). […] […]. Alteration of TCR contact residues has the advantage that the resultant APL are highly likely to be viewed as “nonself” and may therefore have increased potential for breaking immune tolerance. […]. PS-CPL have been explored as a way of selecting such “mimitopes” ([19], [33], [50]). This approach ...

Row | Sequence | MFI of HLA A2 expression (HLA A2) | IFNγ production by TIL infusion product (MM909.24 TIL) | activation of clone ST8.24 (MIP-1β ELISA) (CD8 T-cell clone ST8.24) | healthy donors in which the peptide induced greater CD8 T-cell responses [1]
1 | DRASFIKNL | 197 and 191 and 182 and 211 and 183 and 188 |  |  | 
2 | FATGIGIITV [super-agonist peptide of clone MEL5 from the authors' previous work] |  | failed to induce IFNγ production | failed to activate | 6 of 10
3 | HPVGEADYFEY | 183 and 202 and 199 and 159 and 231 |  |  | 
